Measured values reported in US8304440B2, “Combination of a bis-thiazolium salt or a precursor thereof and artemisinin or a derivative thereof for treating acute malaria” (Sanofi, priority 2008, dated 2012).

Tested on: Plasmodium vinckei petteri (strain 279 BY)
Experiment: In vivo measurement of the antimalarial activity in mice infected with Plasmodium vinckei petteri (4-day ip treatment)
Design: species or system Plasmodium vinckei petteri in female Swiss mice
From the text: • ED50=dose in mg/kg/day which brings about a 50% decrease in parasitaemia, observed in the infected mice, • ED90=dose in mg/kg/day which brings about a 90% decrease in parasitaemia, observed in the infected mice, • ip=intraperitoneal administration, • iv=intravenous administration, • ir=intrarectal administration.
On day 0 (D0), female “Swiss” mice (OF1, 22-26 g) (Charles River Laboratories France, 59 rue de la Paix, 76410 Saint-Aubin-les-Elbeuf) are inoculated, by iv injection in the caudal vein, with 10^8 parasitized erythrocytes suspended in 200 μl of NaCl (0.9%). The parasites used are of Plasmodium vinckei petteri type (strain 279 BY, supplied by Dr. I Landau, Paris, France).
The injection of 10^8 parasitized erythrocytes results, at day 1 (D1), in a parasitemia level of between 5% and 10% (7.2%±0.2%). The Plasmodium vinckei petteri strain is maintained by weekly infection in mice with 10^7 to 10^8 parasitized erythrocytes suspended in a saline phosphate buffer (0.9%) (infection by intraperitoneal administration).
The products are dissolved in a 0.3M phosphate buffer (pH=8.1). The final concentration of the T3 solution is between 40 and 200 mg/l depending on the dose. The final concentration of the artesunate solution is between 100 and 500 mg/l depending on the dose. The products are administered ip. The administration volume is of the order of 100 μl, but depends on the weight of the mouse.
The mice are treated once a day for 4 days, on days D1, D2, D3 and D4 (Peters, W., J. H. Portus, and B. L. Robinson. 1975. The chemotherapy of rodent malaria. XXII. The value of drug-resistant strains of P. berghei in screening for blood schizonticidal activity. Ann. Trop. Med. Parasitol. 69:155-171; and: Ancelin M L, Calas M., Bonhoure A., Herbute S, and Vial H., In vivo antimalarial activity of mono and bis quaternary ammonium salts interfering with Plasmodium phospholipid metabolism. Antimicrob. Agents Chemother., 2003, 47, 2598-2605). Four mice are used per dose.
The animal is given, by ip administration, according to the case, T3, artesunate or the mixture of the two active ingredients solubilized.
At the 5th day, a few drops of blood are taken from the tail of the mouse in order to determine the parasitemia by FACS (fluorescence-activated cell sorter) and to perform a blood smear. The parasitemia is first determined by FACS on 20 000 cells. The red blood cells taken for the FACS are fixed with glutaraldehyde and then labeled with a fluorochrome (YOYO1®) which labels DNA and therefore only the parasitized cells (Barkan, D., Ginsburg, H., and Golenser, J. 2000. Optimisation of flow cytometric measurement of parasitaemia in plasmodium-infected mice. Int. J. Parasitol. 30: 649-653). The parasitemias below 15% are subsequently recounted on smears. The smears are fixed with methanol and then stained with Giemsa stain. The number of parasitized blood cells is counted under a microscope. The parasitemia is expressed as percentage of infected erythrocytes present in the specimen, on a sample of 2000 cells. The ED50 and ED90 values are determined at D5. The parasitemia is determined from the 1st to the 10th day of treatment, and then at the 15th, 22nd and 47th days.
The curative dose is the dose of product which ensures the survival of the entire treated batch of animals after one month.
0% inhibition corresponds to the mean of the parasitemias observed in the nontreated, infected mice. 100% inhibition corresponds to a very weak or null parasitemia, below 0.01%. The ED50 values are determined by linear interpolation of the dose-response curve represented in logarithm of concentrations.

C[C@H]1[C@H](OC(=O)CCC(=O)O)O[C@@H]2O[C@@]3(C)CC[C@H]4[C@H](C)CC[C@@H]1[C@@]24OO3 [artesunate, reference compound]
parasitaemia D5 (Artesunate 2.5 mg/kg/d alone, ip D1-D4, D5): 53.20%
parasitaemia D1 (Artesunate 2.5 mg/kg/d alone, ip, D1 (first treatment day)): 7.00%
parasitaemia D2 (Artesunate 2.5 mg/kg/d alone, ip, D2 (24 h after first administration)): 32.90%
activity on the parasitemia at 4 days (artesunate 0.5 mg/kg/d): completely inactive
complete recovery after one month (artesunate alone 2.5 mg/kg/day): does not
effect on parasitemia on the first day and following days (artesunate alone, at the doses tested, ip (FIG. 1)): does not reduce the parasitemia
ED50 (dose giving 50% decrease in parasitaemia, ip once a day D1-D4, determined at D5, compound alone): >2.5 mg/kg/day
